Publication PMC13267113 (npj Drug Discovery, 2025)
Converted amounts (≈) assume the structure as drawn.

Key:
[1] = molecular target: T1, human DNA topoisomerase IIα (TOP2A) (Homo sapiens, UniProt P11388); assay: human topoisomerase II alpha decatenation assay; format: biochemical; conditions: n = 3, read-out: IC50 against TOP2A
T1 construct: purchased Inspiralis
Procedure: Inhibition of topoisomerase activity was examined using the human topoisomerase II alpha decatenation assay kit (Inspiralis) as indicated by the manufacturer. Briefly, a compound dilution series was prepared in DMSO. Water, dilution buffer, assay buffer, plasmid and enzyme were mixed with the compound solution and incubated at 37 °C for 30 min. A positive control (100% activity) was prepared without the compound, and a negative control (0% activity) was prepared without the compound and the enzyme. The reaction was stopped by adding gSTEB-buffer and chloroform/isoamylalcohol (24:1 v/v). The samples were vortexed and centrifuged before running gel electrophoresis. The gel was stained with ethidium bromide and imaged using a Fusion Fx gel imager (Vilber Lourmat). Subsequent analysis was done using ImageJ and GraphPad Prism (Version 10.0.2).

[2] = test system: HepG2 (human, liver); assay: MTT cytotoxicity HepG2; format: cell-based; conditions: 72 h, n = 3
Procedure: (§1) All cell types were cultivated at 37 °C with 5% CO2. HepG2, HEK293, HCT116, CHO-K1, HeLa-CCL-2 and Huh-7.5 were purchased from ATCC. The respective cell media (Gibco) were supplemented with 10% FBS (Gibco) before usage. Cells were used between passages #5 and #30. To obtain biological repeats, cells were split separately for at least two passages.
(§2) Cells were washed with PBS and 0.5 mL trypsin was added. Afterwards, cells were incubated for 5 min before adding 10 mL medium containing 10% FBS. Per well, 120 µL cell suspension (5 × 10^4 cells/mL) was seeded in transparent 96-well cell bind plates and incubated for 2 h (37 °C, 5% CO2). A dilution series (1:3) of test compounds was prepared in respective media containing 10% FBS and added (60 µL) to the prepared cell plate. Cells were incubated for a further 72 h (37 °C, 5% CO2). Next, 20 µL MTT (5 mg/mL in PBS) was added to each well and incubated for 2 h (37 °C, 5% CO2). The wells were emptied and 100 µL isopropanol/10 N HCl (1000:4) per well was added.
(§3) The plates were analyzed by measuring the absorbance at 570 nm (plate reader Infinite® 200 Pro, Tecan). After normalization of data to the respective solvent controls, the calculated percentage of growth inhibition was plotted using GraphPad Prism software (version 10.0.2).

[3] = Metabolic stability in mouse liver microsomes; format: in vitro ADME; conditions: pooled mouse liver microsomes, 0.5 mg/mL microsomes, NADPH
Procedure: The metabolic stability of testosterone, verapamil and ketoconazole was determined in parallel to confirm the enzymatic activity of mouse liver microsomes. For combination experiments, cobicistat was added to the incubation mixture together with test compounds. […] Concentration of the remaining test compound at the different time points was analyzed by HPLC-MS/MS (Vanquish Flex coupled to a TSQ Altis Plus, Thermo Fisher, Dreieich, Germany) and used to determine half-life (t1/2).

[4] = Mouse plasma protein binding; format: in vitro ADME; conditions: read-out: Mouse PPB (converted)
[5] = physchem; conditions: zebrafish embryo incubation medium, aqueous buffer, kinetic from dmso stock
[6] = test system: HEK293 (human, kidney); assay: MTT cytotoxicity HEK293; format: cell-based; conditions: HEK293, MTT, 72 h, n = 3, read-out: IC50 HEK293 (human, kidney)
Procedure: as §1, §2, §3

[7] = Metabolic stability in mouse hepatocytes; format: in vitro ADME
Procedure: For the evaluation of combined phase I and phase II metabolic stability, the compound (1 μM) was incubated with 0.25 × 10^6 cells/mL of pooled mouse hepatocytes (Xenotech, Kansas City, USA). Cells were thawed in Leibovitz’s L-15 medium without phenol red (ThermoFisher Scientific, Waltham, USA). Briefly, cells were transferred into 50 mL of medium, followed by centrifugation at 55 g for 6 min. Supernatant was discarded, and the cell count was determined after gently resuspending the cell pellet in 1mL of medium. Hepatocytes were diluted to 0.5 × 10^6 cells/mL and incubated at 37 °C, 700 rpm for 10 min, to achieve the desired final cell count after addition of an equal volume of test compounds in medium, leading to a final test concentration of 1 µM at 1% DMSO. […] For the determination of metabolism in the presence of cobicistat, this drug was added together with test compounds in the desired concentration range. The metabolic stability of testosterone, verapamil, ketoconazole and 7-hydroxycoumarine were determined in parallel to confirm the enzymatic activity of mouse hepatocytes. […] Concentration of the remaining test compound at the different time points was analyzed by HPLC-MS/MS (Vanquish Flex coupled to a TSQ Altis Plus, Thermo Fisher, Dreieich, Germany) and used to determine half-life (t1/2). Intrinsic clearance was calculated as follows:2 CLintµL/min×10^6cells=Incubation volumeµL×ln(2)/Cells in incubation mixture[10^6]×t1/2
For metabolite identification studies, test compounds were incubated at 10 µM final concentration and samples were analyzed using HPLC-HRMS (Ultimate 3000 coupled to a Q Exactive Focus, Thermo Fisher, Dreieich, Germany). […] Blank samples using DMSO were run in parallel for background subtraction. Sample processing for metabolite identification was performed using Compound Discoverer 3.2 (Thermo Fisher, Dreieich, Germany). Metabolites were identified based on mass shifts and feasibility of the metabolic reaction, also in view of MS peak intensities over time.

[8] = test system: HeLa (human, cervix); assay: MTT cytotoxicity HeLa; format: cell-based; conditions: 72 h, n = 3
Procedure: as §1, §2, §3

[9] = test system: HCV pseudoparticle (HCVpp; JFH1 genotype 2a, Con1 genotype 1b) entry into Huh-7.5; assay: HCVpp cell entry assay; conditions: Hepatitis C virus, GETYPE1B|GETYPE2A, Huh7.5, 72 h, read-out: concentration of 50% entry inhibition
[10] = test system: U-2 OS cells; assay: Mitochondrial superoxide formation (MitoSOX Red); format: cell-based, human; conditions: n = 6
Procedure: CYS was tested for its potential to induce oxidative stress in U-2 OS cells. Therefore, 120 µL of a cell suspension in McCoy’s (+10% FBS) containing 5 × 10^4 cells/mL were seeded into black 96-well imaging plate (BD Falcon). The plates were incubated for two days (37 °C, 5% CO2) until the cells reached approximately 70% confluence. Subsequently, the cells were washed with HBSS buffer, prior to adding CYS (20 µM) and the ROS inducer menadione (50 µM) as positive control, along with the staining solution (HBSS, calcium, magnesium, 5 µM MitoSOX red and 10 µg/mL Hoechst (Thermo)). To check for ROS protective properties, menadione (50 µM) was added directly to the staining solution. […] Afterwards, the cells were washed twice with HBSS. The cells were imaged using an automated fluorescence microscope (Celldiscoverer 7, Zeiss) (excitation: […]) to analyze the fluorescence intensity of the superoxide tracker MitoSOX red. The experiment was carried out with six replicates per condition. Quantification was done by high-content image analysis using the ZEN software (version 3.4, blue edition, Zeiss). Data presentation was done using GraphPad Prism (version 10.0.3) with ordinary one-way ANOVA including multiple comparisons to the control group for statistical analysis of the sample without ROS induction via menadione in the staining solution. Multiple unpaired t test was used to compare samples for ROS protective properties, which were incubated with menadione in the staining solution.

[11] = test system: U2OS (human, osteosarcoma); assay: MTT cytotoxicity U2OS; format: cell-based; conditions: 72 h, n = 3
Procedure: as §2, §3

[12] = Mouse plasma stability; format: in vitro ADME; conditions: read-out: Mouse plasma t1/2
[13] = test system: HCT116 (human, colon); assay: MTT cytotoxicity HCT116; format: cell-based; conditions: HCT-116, 72 h, n = 3
Procedure: as §1, §2, §3

[14] = test system: SCARB1; set-up: method as in PMID 19815817; conditions: previous in vivo mouse studies; cited from earlier work
[15] = set-up: method as in PMID 26437376, PMID 24041792; conditions: cited from earlier work

T1 sequence (P11388 whole entry): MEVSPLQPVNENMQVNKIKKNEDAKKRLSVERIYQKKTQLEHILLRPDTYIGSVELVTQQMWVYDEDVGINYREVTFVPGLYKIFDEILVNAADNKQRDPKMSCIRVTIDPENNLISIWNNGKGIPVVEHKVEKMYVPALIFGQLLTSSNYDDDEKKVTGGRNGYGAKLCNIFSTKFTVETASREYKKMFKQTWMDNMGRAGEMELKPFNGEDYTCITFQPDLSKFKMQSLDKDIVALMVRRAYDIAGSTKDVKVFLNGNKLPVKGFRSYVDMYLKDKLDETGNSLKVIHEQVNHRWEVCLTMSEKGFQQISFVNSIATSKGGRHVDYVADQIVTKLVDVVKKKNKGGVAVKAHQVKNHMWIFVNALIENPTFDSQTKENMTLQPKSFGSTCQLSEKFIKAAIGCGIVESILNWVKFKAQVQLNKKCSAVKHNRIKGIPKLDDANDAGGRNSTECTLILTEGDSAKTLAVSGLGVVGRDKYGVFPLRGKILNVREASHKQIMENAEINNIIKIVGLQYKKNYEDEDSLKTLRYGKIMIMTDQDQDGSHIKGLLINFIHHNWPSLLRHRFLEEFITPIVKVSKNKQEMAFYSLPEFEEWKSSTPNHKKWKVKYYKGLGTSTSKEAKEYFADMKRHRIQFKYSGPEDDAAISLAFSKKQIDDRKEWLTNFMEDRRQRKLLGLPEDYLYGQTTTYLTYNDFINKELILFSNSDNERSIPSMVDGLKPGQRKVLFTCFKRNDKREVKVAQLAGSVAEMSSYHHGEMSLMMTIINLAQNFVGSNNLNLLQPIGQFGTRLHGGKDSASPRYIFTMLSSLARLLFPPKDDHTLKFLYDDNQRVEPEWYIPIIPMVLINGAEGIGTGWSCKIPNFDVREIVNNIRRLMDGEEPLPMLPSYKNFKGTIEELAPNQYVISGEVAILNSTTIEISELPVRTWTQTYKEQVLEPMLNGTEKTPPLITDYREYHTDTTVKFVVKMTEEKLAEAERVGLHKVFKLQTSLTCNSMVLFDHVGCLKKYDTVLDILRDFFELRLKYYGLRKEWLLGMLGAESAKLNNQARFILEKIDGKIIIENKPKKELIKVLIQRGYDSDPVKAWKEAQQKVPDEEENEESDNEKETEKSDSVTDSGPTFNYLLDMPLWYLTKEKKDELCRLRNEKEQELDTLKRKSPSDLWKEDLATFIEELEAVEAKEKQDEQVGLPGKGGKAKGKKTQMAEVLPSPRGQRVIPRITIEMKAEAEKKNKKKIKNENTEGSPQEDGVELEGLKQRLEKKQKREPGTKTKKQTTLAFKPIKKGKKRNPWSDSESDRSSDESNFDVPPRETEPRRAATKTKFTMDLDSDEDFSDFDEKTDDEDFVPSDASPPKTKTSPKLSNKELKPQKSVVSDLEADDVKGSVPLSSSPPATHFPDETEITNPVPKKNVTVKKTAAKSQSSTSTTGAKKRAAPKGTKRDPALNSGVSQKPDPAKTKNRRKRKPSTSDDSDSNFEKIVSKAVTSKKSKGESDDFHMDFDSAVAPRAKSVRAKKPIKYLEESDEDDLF

Question: For `C=CC1CC1(NC(=O)C12CC(NC(=O)c3ccc(C#N)cc3)(C1)C2)C(=O)Nc1ccc(C(=O)Nc2ccc(C(=O)Nc3ccc(C(=O)O)cc3)c(O)c2OC(C)C)cc1` (stereo not shown) [Cysto-180], which IC50 [1] is on record?
Answer: The IC50 was 12.2 ± 0.63 µM.

Question: And the IC50 [2]?
Answer: The IC50 was over 20 µM.

Question: What about the microsomal CLint at 1 μM ([3]; read-out: MLM Clint) of the same compound?
Answer: The microsomal CLint at 1 μM was under 11.6 µL/min/mg.

Question: What about the half-life at 1 µM ([3]; read-out: MLM t1/2) of the same compound?
Answer: The half-life at 1 µM was over 2 h.

Question: What about the fraction unbound [4] of the same compound?
Answer: Its fraction unbound is 0.041.

Question: What about the solubility [5] of the same compound?
Answer: Its solubility is 200 µM (≈ 159 µg/mL).

Question: What about the IC50 [6] of the same compound?
Answer: Its IC50 is over 20 µM.

Question: What about the major metabolic pathways ([7]; metabolite identification, 10 µM, mouse hepatocytes) of the same compound?
Answer: Its major metabolic pathways is “amide bond hydrolysis and glucuronidation”.

Question: And the hepatocyte CLint at 1 µM ([7]; mouse, pooled mouse hepatocytes, 1 μM, 0.25 × 10^6 cells/mL)?
Answer: Its hepatocyte CLint at 1 µM is 26 µL/min/1e6 cells.

Question: And the half-life at 1 µM ([7]; mouse, pooled mouse hepatocytes, 1 μM, 0.25 × 10^6 cells/mL, read-out: Mouse Hepatocytes t1/2)?
Answer: The half-life at 1 µM was 0.683 ± 0.267 h.

Question: And the IC50 [8]?
Answer: Its IC50 is over 37 µM.

Question: And the IC50 [9]?
Answer: The IC50 was about 3.3 µM.

Question: And the “basal superoxide radical levels vs DMSO control” value ([10]; 20 µM, MitoSOX Red, no menadione)?
Answer: The value was “decrease of superoxide radical levels”.

Question: What about the “menadione-induced superoxide formation on co-treatment” value ([10]; CYS 20 µM + menadione 50 µM) of the same compound?
Answer: The value was “no significant increase of superoxide”.

Question: What about the IC50 [11] of the same compound?
Answer: The IC50 was over 20 µM.

Question: And the half-life [12]?
Answer: The half-life was over 4 h.

Question: And the IC50 [13]?
Answer: The IC50 was over 20 µM.

Question: With `COc1c(NC(=O)C(=O)c2ccc(OCCN3CCOCC3)c3ccccc23)cc(C(C)(C)C)cc1NS(C)(=O)=O` [ITX5061] as the compound, how does the “effect of SCARB1 suppression in mice” value [14] read?
Answer: The value was “increased beneficial HDL cholesterol levels and partially reduced atherosclerotic lesions”.

Question: What about the safety in humans [15] of the same compound?
Answer: Its safety in humans is “safety in humans has been demonstrated”.
